The text below walks through data of patent US6777193B1, “Methods for diagnostic and/or treatment of antiphospholipids antibodies-related diseases, and devices” (Escuela Nacional de Ciencias Biologicas, del Instituto …, priority 2000, dated 2004).

The structures appear in SMILES notation.

One assay concerns H308 monoclonal antibody. Nature of the assay: Inhibition of H308 monoclonal antibody by phosphorylated haptens (liposomal-ELISA). It is filed as binding, mouse. The settings on record: 0.2 μmoles of hapten. As for the experimental part: Studies on inhibition of anti-lipidic particles antibodies were carried out using liposomes as antigens and the antigen-antibody reaction was analyzed by the liposomal-ELISA method, which includes the following steps:
A) A first step of addition and incubation, in which an effective quantity of an antigen suspension is added to each one of the wells of the ELISA microtiter plate. This microtiter plate is selected among those with a high lipidic antigens binding property and said microtiter plate is incubated between 25 to 30° C. for 0.25 to 2 h.
B) A second step of addition and incubation, in which an effective quantity of a blocking solution is added to each one of the wells of the ELISA microtiter plate with a high lipidic antigens binding property, and said microtiter plate being incubated at a temperature between 25 to 30° C. for 0.25 to 2 h.
C) A step of elimination of blocking solution, preferably by suction, avoiding that microtiter plate becomes dry when blocking solution is eliminated, because liposomal antigens can be damaged.
D) A step of inhibition of the antibody porter, in which the antibody porter is incubated with a chemical substance, or hapten, that will inhibit the active site that recognizes the antigen in the antibody porter.
E) A third step of addition and incubation, in which an effective quantity of the antibody porter inhibited by the hapten was quickly added, to avoid that microtiter plate becomes dry, to each one of the wells using an antibody porter dilution from 1:5 to 1:1000 into blocking solution. This microtiter plate being incubated for 0.25 to 2 h at a temperature between 25 to 30° C.
F) A first step of washing, in which the microtiter plate is washed with the blocking solution, preferably repeating 4-times and avoiding that microtiter plate becomes dry when eliminating the blocking solution.
G) A fourth step of addition and incubation, in which an effective quantity of a second antibody is added to each one of the wells of microtiter plate. This plate is incubated in the darkness for 0.25 to 2 h at a temperature between 25 to 30° C. Second antibody is selected preferably among antibodies from a different specie to that of the antibody porter and they can be anti-Fc of human IgG, IgA and IgM or of the animal in study, or antibodies anti-Fc of IgM or of IgG depending on the nature of the monoclonal antibody when this is the antibody porter. Second antibody is used in a final dilution into blocking solution between […] and 1:3500 and it is conjugated to an enzyme preferably to peroxidase.
H) A second step of washing, in which the microtiter plate is washed with the blocking solution, preferably repeating 4-times and avoiding that microtiter plate becomes dry when eliminating the blocking solution.
I) A fifth step of addition and incubation, in which an effective quantity of the peroxidase sustrates is added to each one of the wells and this microtiter plate is incubated for 0.1 to 0.5 h at a temperature between .35 and 40° C., stopping the peroxidase reaction by adding an effective quantity of sulfuric acid.
J) A step of analysis, in which microtiter plate is analyzed using a reading device for ELISA plates, preferably at 492 nm.
In a specific embodiment, the hapten solution is obtained dissolving hapten in a buffer solution at pH between 7.0 and 7.4, in a relationship from 0.1 to 10 mmoles of hapten per liter of buffer solution.
Costar microtiter plates, with 96 flat-bottom wells with a high lipidic antigens binding property (Costar Co. Cambrige, USA) were coated by the addition to each one of the wells of 100 μl of liposomes made from egg-yolk phosphatidylcholine:phosphatidate (2:1 molar ratio) in Tris-NaCl buffer (10 mM, 1 mM) pH 7, containing 0.1 μmol of phosphatidate, and treated with 5 mM CaCl2 to induce lipidic particles formation. Microtiter plates were incubated at room temperature for 1 h and they were blocked for 1 h at room temperature in a similar way as was described in Example 1. […]
For orientation: An ELISA detects its analyte on a solid surface through an enzyme-linked reagent.

Assay [1] has as its system anti-lipidic particles antibodies from sera of patients with the antiphospholipid syndrome. Nature of the assay: Hapten inhibition of anti-lipidic particles antibodies from patients' sera (liposomal-ELISA). The note with it: 0.2 μmoles hapten, 30 min at 30° C. It is filed as binding, human. As for the experimental part:
Costar microtiter plates, with 96 flat-bottom wells with a high lipidic antigens binding property (Costar Co. Cambrige, USA) were coated by the addition to each one of the wells of 100 μl of liposomes made from egg-yolk phosphatidylcholine:phosphatidate (2:1 molar ratio) in Tris-NaCl buffer (10 mM, 1 mM) pH 7, containing 0.1 μmol of phosphatidate, and treated with 5 mM CaCl2 to induce lipidic particles formation.
Aliquots of 100 μl of patients' sera that were analyzed in Examples 1 and 2B were incubated with 100 μl of 0.2 μmoles of glycerolphosphorylcholine for 30 min at 30° C. Later on, blocked patients sera were added to the wells of the microtiter plate and the liposomal-ELISA method was applied as it was described in Example 1. Peroxidase-conjugated goat anti-Fc of human IgG, IgA and IgM antibodies were used as second antibody.

In another assay the test system is BALB/c female mice. Nature of the assay: Treatment of the pathology induced by H308 monoclonal antibody in mice. It is filed as in vivo, mouse. As for the experimental part:
H308 monoclonal antibody was administered by intraperitoneal injection of 1 μg each week during two months to BALB/c female mice, and simultaneously the glycerolphosphorylcholine hapten was administered at 2.5 mg/Kg, of body weight, doses by intravenous injection each 24 hs, for 2-months.
Spermidine was administered, as chlorhydrate, in a dose of 1 mg/Kg, of body weight, by intraperitoneal injection each 24 hs, during two months.

Consider `C[N+](C)(C)CCOP(=O)([O-])OC[C@H](O)CO` [glycerolphosphorylcholine], for which, in the assay on H308 monoclonal antibody, the “inhibition of H308 monoclonal antibody” value turned out to be 100%. Moreover, in assay [1], the “inhibition in the immunoreaction of patients sera with lipidic particles in liposomes” value stood at 100%. Moreover, the “inhibition of the development of mice pathology by H308 monoclonal antibody” value with BALB/c female mice (hapten 2.5 mg/Kg intravenous each 24 hs for 2-months, H308 1 μg i.p. each week) was determined as 40%. Besides, the therapeutically effective quantity in the assay on BALB/c female mice (of body weight, BALB/c female mice given H308) amounted to 2.5 mg/kg.
